Key:
[1] = tested on: mutated I83 trastuzumab memAb (I83 mutated to glutamate); test: SPR of meditope peptide variants binding to immobilized memAb variant; conditions: SPR at 37° C.; original meditope; vs original trastuzumab memAb
Experimental: FIG. 3A-3H. […] FIG. 3E-H) SPR sensograms collected at 37° C.

[2] = tested on: cetuximab or the meditope-enabled trastuzumab; test: Lifetime of the meditope-Fab interaction; assay type: binding; conditions: 37° C.
Excerpt: Since the cyclic, twelve residue peptide binds in a hole that runs through the middle of the Fab arm, Applicants have named it a meditope. Antigen binding is not altered after grafting or in the presence of the meditope^14-15. As such, Applicants understood that they could use the meditope interaction as a hitch for the delivery of cytotoxins, imaging agents, or biologics. […] Applicants further improved the lifetime by creating a mechanical bond by modifying the arginine at position 8 with an azide, threading it through the Fab hole, and using click chemistry to sterically block its dissociation. While the lifetime of this mechanically interlocked Fab complex is difficult to ascertain, Applicants were capable of imaging tumors in animal xenografts.

SKBR3 cells = test: Cell viability (CellTiter-Glo) for DM1 and MMAE conjugates; assay type: cell-based; conditions: 72 h, read-out: EC50 (cell viability / lysis)

Substance	increase in affinity with I83 mutated to glutamate [1]	lifetime of the meditope peptide on the Fab [2]	EC50 (SKBR3 cells) [nM]
Ac-CQFDLSTRRLKC-Am (Ac-CQFDLSTRRLKC-NH2; not fully specified (bridges); printed as Ac-CQFDLSTRRLKC-Am; also: cyclic, kind not given here) [original meditope, serine at position 6]	~25	seconds	–
trastuzumab emtansine [clinical DM1]	–	–	0.093
